In patent publication US20240109903A1, “SUBSTITUTED HETEROCYCLES FOR TREATING CANCER” (Northwestern University, priority 2022, published 2024):

Columns and labels:
Type in all cases: cell-based
[1] = system: CCRF-CEM; experiment: NCI 60 five-dose screen CCRF-CEM; details: Homo sapiens, five-dose; for CC50: read-out: LC50 (the source's name)
[2] = system: OVCAR-3; experiment: NCI 60 five-dose screen OVCAR-3; details: Homo sapiens, five-dose; for CC50: read-out: LC50 (the source's name) (converted)
[3] = system: HCT-15; experiment: NCI 60 five-dose screen HCT-15; details: Homo sapiens, five-dose; for CC50: read-out: LC50 (the source's name) (converted)
[4] = system: SK-MEL-5; experiment: NCI 60 five-dose screen SK-MEL-5; details: Homo sapiens, five-dose; for CC50: read-out: LC50 (the source's name) (converted)
[5] = system: NCI-H226; experiment: NCI 60 five-dose screen NCI-H226; details: Homo sapiens, five-dose; for CC50: read-out: LC50 (the source's name) (converted)
[6] = system: RPMI-8226; experiment: NCI 60 five-dose screen RPMI-8226; details: Homo sapiens, five-dose; for CC50: read-out: LC50 (the source's name)
[7] = system: SK-OV-3; experiment: NCI 60 five-dose screen SK-OV-3; details: Homo sapiens, five-dose; for CC50: read-out: LC50 (the source's name) (converted)
[8] = system: A498; experiment: NCI 60 five-dose screen A498; details: Homo sapiens, five-dose; for CC50: read-out: LC50 (the source's name) (converted)
[9] = system: HT29; experiment: NCI 60 five-dose screen HT29; details: Homo sapiens, HT-29, five-dose; for CC50: read-out: LC50 (the source's name) (converted)
[10] = system: SF-268; experiment: NCI 60 five-dose screen SF-268; details: Homo sapiens, five-dose; for CC50: read-out: LC50 (the source's name) (converted)
[11] = system: HL-60(TB); experiment: NCI 60 five-dose screen HL-60(TB); details: Homo sapiens, five-dose; for CC50: read-out: LC50 (the source's name) (converted)
[12] = system: OVCAR-8; experiment: NCI 60 five-dose screen OVCAR-8; details: Homo sapiens, five-dose; for CC50: read-out: LC50 (the source's name) (converted)
[13] = system: OVCAR-4; experiment: NCI 60 five-dose screen OVCAR-4; details: Homo sapiens, five-dose; for CC50: read-out: LC50 (the source's name) (converted)
[14] = system: MCF7; experiment: NCI 60 five-dose screen MCF7; details: Homo sapiens, five-dose; for CC50: read-out: LC50 (the source's name) (converted)

## FC(F)(F)c1cc2c(Cl)ncnc2n1CCC1CCOCC1 [NUCC-0226674]
[1]
  GI50: 1.41 µM
  IC50: 2.51 µM
  IC (TGI): 4.57 µM
  CC50: ≥ 100 µM
[2]
  GI50: 12.3 µM
  IC50: 23.4 µM
  IC (TGI): 27.5 µM
  CC50: 61.7 µM
[3]
  GI50: 2.95 µM
  IC50: 3.8 µM
  IC (TGI): 11 µM
  CC50: 41.7 µM
[4]
  GI50: 2.82 µM
  IC50: 4.37 µM
  IC (TGI): 9.33 µM
  CC50: 30.2 µM
[5]
  GI50: 13.8 µM
  IC50: 30.2 µM
  IC (TGI): 28.8 µM
  CC50: 58.9 µM
[6]
  GI50: 14.5 µM
  IC50: 25.7 µM
  IC (TGI): 41.7 µM
  CC50: ≥ 100 µM
[7]
  GI50: 17.4 µM
  IC50: 33.1 µM
  IC (TGI): 33.1 µM
  CC50: 64.6 µM
[8]
  GI50: 16.2 µM
  IC50: 30.9 µM
  IC (TGI): 30.2 µM
  CC50: 55 µM
[9]
  GI50: 13.8 µM
  IC50: 21.4 µM
  IC (TGI): 44.7 µM
  CC50: ≥ 100 µM
[10]
  GI50: 2.45 µM
  IC50: 4.57 µM
  IC (TGI): 7.24 µM
  CC50: 44.7 µM
[11]
  GI50: 2.24 µM
  IC50: 4.17 µM
  IC (TGI): 5.01 µM
  CC50: 44.7 µM
[12]
  GI50: 2.45 µM
  IC50: 3.63 µM
  IC (TGI): 7.41 µM
  CC50: 63.1 µM
[13]
  GI50: 18.6 µM
  IC50: 38 µM
  IC (TGI): 50.1 µM
  CC50: ≥ 100 µM
[14]
  GI50: 11.5 µM
  IC50: 19.1 µM
  IC (TGI): 36.3 µM
  CC50: ≥ 100 µM

## FC(F)(F)c1cc2c(Cl)ncnc2n1CCN1CCCCC1 [NUCC-0226679]
[1]
  GI50: 11 µM
  IC50: 74.1 µM
  IC (TGI): 100 µM
  CC50: ≥ 100 µM
[2]
  GI50: 17.8 µM
  IC50: 33.1 µM
  IC (TGI): 35.5 µM
  CC50: 72.4 µM
[3]
  GI50: 3.16 µM
  IC50: 4.17 µM
  IC (TGI): 12.9 µM
  CC50: 55 µM
[4]
  GI50: 14.8 µM
  IC50: 26.3 µM
  IC (TGI): 30.9 µM
  CC50: 64.6 µM
[5]
  GI50: 60.3 µM
  IC50: 100 µM
  IC (TGI): 100 µM
  CC50: ≥ 100 µM
[6]
  GI50: 31.6 µM
  IC50: 45.7 µM
  IC (TGI): 100 µM
  CC50: ≥ 100 µM
[7]
  GI50: 52.5 µM
  IC50: 100 µM
  IC (TGI): 100 µM
  CC50: ≥ 100 µM
[8]
  GI50: 100 µM
  IC50: 100 µM
  IC (TGI): 100 µM
  CC50: ≥ 100 µM
[9]
  GI50: 20.9 µM
  IC50: 29.5 µM
  IC (TGI): 81.3 µM
  CC50: ≥ 100 µM
[10]
  GI50: 16.2 µM
  IC50: 30.9 µM
  IC (TGI): 38.9 µM
  CC50: 93.3 µM
[11]
  GI50: 2.09 µM
  IC50: 4.37 µM
  IC (TGI): 7.41 µM
  CC50: ≥ 100 µM
[12]
  GI50: 12.6 µM
  IC50: 20.4 µM
  IC (TGI): 33.1 µM
  CC50: 87.1 µM
[13]
  GI50: 28.2 µM
  IC50: 70.8 µM
  IC (TGI): 100 µM
  CC50: ≥ 100 µM
[14]
  GI50: 19.5 µM
  IC50: 30.2 µM
  IC (TGI): 75.9 µM
  CC50: ≥ 100 µM

## FC(F)(F)c1cc2c(Cl)ncnc2n1CCN1CCOCC1 [NUCC-0226680]
[1]
  GI50: 16.6 µM
  IC50: 35.5 µM
  IC (TGI): 100 µM
  CC50: ≥ 100 µM
[2]
  GI50: 19.5 µM
  IC50: 37.2 µM
  IC (TGI): 43.7 µM
  CC50: 97.7 µM
[3]
  GI50: 3.31 µM
  IC50: 4.27 µM
  IC (TGI): 17.8 µM
  CC50: ≥ 100 µM
[4]
  GI50: 12.9 µM
  IC50: 22.9 µM
  IC (TGI): 29.5 µM
  CC50: 67.6 µM
[5]
  GI50: 100 µM
  IC50: 100 µM
  IC (TGI): 100 µM
  CC50: ≥ 100 µM
[6]
  GI50: 31.6 µM
  IC50: 46.8 µM
  IC (TGI): 100 µM
  CC50: ≥ 100 µM
[7]
  GI50: 100 µM
  IC50: 100 µM
  IC (TGI): 100 µM
  CC50: ≥ 100 µM
[8]
  GI50: 100 µM
  IC50: 100 µM
  IC (TGI): 100 µM
  CC50: ≥ 100 µM
[9]
  GI50: 27.5 µM
  IC50: 36.3 µM
  IC (TGI): 100 µM
  CC50: ≥ 100 µM
[10]
  GI50: 14.8 µM
  IC50: 28.2 µM
  IC (TGI): 33.9 µM
  CC50: 77.6 µM
[11]
  GI50: 2.09 µM
  IC50: 3.89 µM
  IC (TGI): 6.03 µM
  CC50: 66.1 µM
[12]
  GI50: 8.51 µM
  IC50: 13.8 µM
  IC (TGI): 29.5 µM
  CC50: 93.3 µM
[13]
  GI50: 33.1 µM
  IC50: 100 µM
  IC (TGI): 100 µM
  CC50: ≥ 100 µM
[14]
  GI50: 25.1 µM
  IC50: 35.5 µM
  IC (TGI): 100 µM
  CC50: ≥ 100 µM

## FC(F)(F)CN1CCN(CCn2c(C(F)(F)F)cc3c(Cl)ncnc32)CC1 [NUCC-0226683]
[1]
  GI50: 4.37 µM
  IC50: 7.41 µM
  IC (TGI): 100 µM
  CC50: ≥ 100 µM
[2]
  GI50: 14.5 µM
  IC50: 28.8 µM
  IC (TGI): 34.7 µM
  CC50: 83.2 µM
[3]
  GI50: 2.57 µM
  IC50: 3.55 µM
  IC (TGI): 7.41 µM
  CC50: 50.1 µM
[4]
  GI50: 3.72 µM
  IC50: 6.17 µM
  IC (TGI): 13.8 µM
  CC50: 37.2 µM
[5]
  GI50: 17.4 µM
  IC50: 100 µM
  IC (TGI): 72.4 µM
  CC50: ≥ 100 µM
[6]
  GI50: 23.4 µM
  IC50: 39.8 µM
  IC (TGI): 77.6 µM
  CC50: ≥ 100 µM
[7]
  GI50: 16.2 µM
  IC50: 38.9 µM
  IC (TGI): 43.7 µM
  CC50: ≥ 100 µM
[8]
  GI50: 21.4 µM
  IC50: 100 µM
  IC (TGI): 57.5 µM
  CC50: ≥ 100 µM
[9]
  GI50: 5.5 µM
  IC50: 7.41 µM
  IC (TGI): 36.3 µM
  CC50: ≥ 100 µM
[10]
  GI50: 5.25 µM
  IC50: 11.5 µM
  IC (TGI): 21.4 µM
  CC50: 70.8 µM
[11]
  GI50: 2.75 µM
  IC50: 5.75 µM
  IC (TGI): 8.13 µM
  CC50: ≥ 100 µM
[12]
  GI50: 3.24 µM
  IC50: 4.47 µM
  IC (TGI): 11.7 µM
  CC50: 40.7 µM
[13]
  GI50: 26.9 µM
  IC50: 89.1 µM
  IC (TGI): 100 µM
  CC50: ≥ 100 µM
[14]
  GI50: 10 µM
  IC50: 15.8 µM
  IC (TGI): 42.7 µM
  CC50: ≥ 100 µM
